This is an account of results in patent US5475132A, “Antifungal agents based on amides containing a phenyl group” (Rhone-Poulenc Agrochimie, priority 1988, dated 1995).

Like-named read-outs stand apart in the source and are kept apart here.

The test deals with Phytophthora citrophthora. Kind of test: Example B3: action on phytopathogenic soil fungi, growth on agar in Petri dishes. It is filed as cell-based. Conditions: 120 h, read-out: inhibition of the development of the fungus.
[1] abbreviates: 30 ppm, agar medium, 22° C., 5 days.

Consider `COc1ccc(-c2c(C(=O)N3CCOCC3)sc3ccc(I)cc23)cc1OC` [Compound 101, 2-(4-morpholinocarbonyl)-5-iodo-3-(3,4-dimethoxyphenyl)benzothiophene], for which the inhibition at 30 ppm under setting [1] was not below 80%.
Turning to `COc1ccc(-c2c(C(=O)N3CCOCC3)sc3ccc(NC(=O)c4ccc(Cl)cc4)cc23)cc1OC` [Compound 102, 2-(4-Morpholinocarbonyl)-5-(4-chlorobenzoylamino)-3-(3,4-dimethoxyphenyl)benzothiophene], under setting [1], the inhibition at 30 ppm was not below 80%.
With `COc1ccc(-c2c(C(=O)N3CCOCC3)sc3ccc([N+](=O)[O-])cc23)cc1OC` [Compound 104, 2-(4-Morpholinocarbonyl)-5-nitro-3-(3,4-dimethoxyphenyl)benzothiophene], the inhibition at 30 ppm under setting [1] is not below 80%.
Turning to `C=C(C)c1ccc2sc(C(=O)N3CCOCC3)c(-c3ccc(OC)c(OC)c3)c2c1` [Compound 105, 2-(4-Morpholinocarbonyl)-5-(propen-2-yl)-3-(3,4-dimethoxyphenyl)benzothiophene], the inhibition at 30 ppm under setting [1] is not below 80%.
Consider `CCN(CC)C(=O)c1sc2ccccc2c1-c1ccc(OC)c(OC)c1` [Compound 107, 2-(N,N-Diethylcarboxamide)-3-(3,4-dimethoxyphenyl)benzothiophene], for which the inhibition at 30 ppm under setting [1] was not below 80%.
On to `COc1ccc(C2=C(C(=O)N3CCOCC3)C(O)c3ccccc32)cc1OC` (stereo not shown) [Compound 110, 1-(3,4-Dimethoxyphenyl)-2-morpholinocarbonyl-3-hydroxyindene], for which the inhibition at 30 ppm under setting [1] is not below 80%.
Still for that read-out and setting: the value for `COc1ccc2c(c1)CC(C(=O)N1CCOCC1)=C2c1ccc(OC)c(OC)c1` [Compound 111, 2-Morpholinocarbonyl-3-(3,,4-dimethoxyphenyl)-6-mehoxyindene] was not below 80%; that for `COc1ccc(C2=C(C(=O)N3CCOCC3)Cc3cc(OC)c(OC)cc32)cc1OC` [Compound 112, 2-Morpholinocarbonyl-3-(3,4-dimethoxyphenyl)-5,6-methoxyindene] was not below 80%; that for `COc1ccc(-c2c(C(=O)N3CCOCC3)sc3ccc(Cl)cc23)cc1OC` [Compound 113] was not below 80%.
As for `COc1ccc(-c2c(C(=O)N3CCOCC3)sc3ccc(Br)cc23)cc1OC` [Compound 114], under setting [1], the inhibition at 30 ppm is not below 80%.
In the case of `COc1ccc(-c2c(C(=O)N3CCOCC3)sc3ccc(NC(C)=O)cc23)cc1OC` [Compound 115], under setting [1], the inhibition at 30 ppm is not below 80%.
With `COc1ccc(-c2c(C(=O)N3CCOCC3)sc3ccc(NC(=O)C(F)(F)F)cc23)cc1OC` [Compound 116], the inhibition at 30 ppm under setting [1] was not below 80%.
On the same count and under the same terms, next, `COc1ccc(-c2c(C(=O)N3CCOCC3)sc3ccc(F)cc23)cc1OC` [Compound 117]: not below 80%; `COc1ccc(-c2c(C(=O)N3CCOCC3)sc3ccccc23)cc1OC` [Compound 118]: not below 80%; `COc1ccc(-c2c(C(=O)N3CCOCC3)sc3c(N)cccc23)cc1OC` [Compound 121]: not below 80%.
The same measure, in the same setting: the value for `COc1ccc(-c2c(C(=O)N3CCOCC3)sc3c(F)cccc23)cc1OC` [Compound 122] was not below 80%; that for `COc1ccc(-c2c(C(=O)N3CCOCC3)sc3c(Br)cccc23)cc1OC` [Compound 123] was not below 80%.
Regarding `COc1ccc(-c2c(C(=O)N3CCOCC3)sc3c(Cl)cccc23)cc1OC` [Compound 124], under setting [1], the inhibition at 30 ppm was not below 80%.
`COc1ccc(-c2c(C(=O)N3CCOCC3)sc3cc(Cl)ccc23)cc1OC` [Compound 125]: the inhibition at 30 ppm under setting [1] was not below 80%.
The same measure, in the same setting: next, `COc1ccc(-c2c(C(=O)N3CCOCC3)sc3c(-c4ccccc4)cccc23)cc1OC` [Compound 126]: not below 80%; `COc1ccc(-c2c(C(=O)N3CCOCC3)sc3c(C)cccc23)cc1OC` [Compound 127]: not below 80%; `COc1ccc(-c2c(C(=O)N3CCOCC3)sc3cccc(Cl)c23)cc1OC` [Compound 128]: not below 80%.
Consider `COc1ccc(-c2c(C(=O)N3CCOCC3)sc3cccc(F)c23)cc1OC` [Compound 129], for which, under setting [1], the inhibition at 30 ppm is not below 80%.
As for `COc1ccc(-c2c(C(=O)N3CCOCC3)sc3c(NC(=O)C(F)(F)F)cccc23)cc1OC` [Compound 131], the inhibition at 30 ppm under setting [1] was not below 80%.
The same measure, in the same setting: next, `COc1ccc(-c2c(C(=O)N3CCOCC3)sc3c(NC(C)=O)cccc23)cc1OC` [Compound 132]: not below 80%; `COc1ccc(-c2c(C(=O)N3CCOCC3)sc3ccc(C(F)(F)F)cc23)cc1OC` [Compound 133]: not below 80%; `COc1ccc(-c2c(C(=O)N3CCOCC3)sc3ccc(-c4ccsc4)cc23)cc1OC` [Compound 134]: not below 80%.
Turning to `COc1ccc(-c2c(C(=O)N3CCOCC3)sc3ccc(-c4ccccc4)cc23)cc1OC` [Compound 135], the inhibition at 30 ppm under setting [1] was not below 80%.
For the compound `COc1ccc(-c2c(C(=O)N3CCOCC3)oc3ccc([N+](=O)[O-])cc23)cc1OC` [Compound 136], under setting [1], the inhibition at 30 ppm was not below 80%.
On to `COc1ccc(-c2c(C(=O)N3CCOCC3)oc3ccccc23)cc1OC` [Compound 137], for which the inhibition at 30 ppm under setting [1] was not below 80%.
Consider `COc1ccc(-c2c(C(=O)N3CCOCC3)n(C)c3ccc([N+](=O)[O-])cc23)cc1OC` [Compound 141], for which the inhibition at 30 ppm under setting [1] was not below 80%.
On to `COc1ccc(C2=C(C(=O)N3CCOCC3)Cc3cc(OC)c(OC)cc32)cc1` [Compound 149], for which the inhibition at 30 ppm under setting [1] is not below 80%.
As for `CCN(C)C(=O)c1sc2ccccc2c1-c1ccc(OC)c(OC)c1` [Compound 150], under setting [1], the inhibition at 30 ppm is not below 80%.
On to `COc1ccc(-c2c(C(=O)N3CCCCC3)sc3ccccc23)cc1OC` [Compound 153], for which the inhibition at 30 ppm under setting [1] is not below 80%.
On to `COc1ccc(-c2c(C(=O)N3CCCC3)sc3ccccc23)cc1OC` [Compound 154], for which, under setting [1], the inhibition at 30 ppm is not below 80%.
Regarding `COc1ccc(-c2c(C(=O)N(C)C)sc3ccccc23)cc1OC` [Compound 155], the inhibition at 30 ppm under setting [1] was not below 80%.
The same measure, in the same setting: the value for `COc1ccc(-c2c(C(=O)N(C)CCO)sc3ccccc23)cc1OC` [Compound 156] was not below 80%; that for `COc1ccc(-c2c(C(=O)N3CCCCC3CO)sc3ccccc23)cc1OC` (stereo not shown) [Compound 157] was not below 80%.
As for `COCCN(C)C(=O)c1sc2ccccc2c1-c1ccc(OC)c(OC)c1` [Compound 158], the inhibition at 30 ppm under setting [1] was not below 80%.
As to `COc1ccc(-c2c(C(=O)N3CCC(=O)CC3)sc3ccccc23)cc1OC` [Compound 162], the inhibition at 30 ppm is not below 80%.
As for `COCC1CCCN1C(=O)c1sc2ccccc2c1-c1ccc(OC)c(OC)c1` (stereo not shown) [Compound 163], the inhibition at 30 ppm under setting [1] was not below 80%.
`COc1ccc(-c2c(C(=O)N3CCCC(O)C3)sc3ccccc23)cc1OC` (stereo not shown) [Compound 164]: the inhibition at 30 ppm under setting [1] is not below 80%.
Take `COc1ccc(-c2c(C(=O)N3CCCC(OC)C3)sc3ccccc23)cc1OC` (stereo not shown) [Compound 166]: the inhibition at 30 ppm under setting [1] was not below 80%.
Regarding `CCN(C)C(=O)c1sc2ccc(F)cc2c1-c1ccc(OC)c(OC)c1` [Compound 167], the inhibition at 30 ppm under setting [1] was not below 80%.
Turning to `COCCN(C)C(=O)c1sc2ccc(F)cc2c1-c1ccc(OC)c(OC)c1` [Compound 169], under setting [1], the inhibition at 30 ppm was not below 80%.
In the case of `COc1ccc(-c2cc(-c3ccc(F)cc3)ccc2C(=O)N2CCOCC2)cc1OC` [Compound 201, 2-(3,4-Dimethoxyphenyl)-4-(4-fluorophenyl)-1-morpholinocarbonylbenzene], the inhibition at 30 ppm under setting [1] was not below 80%.
